Results taken from patent publication US20120245357A1, “ALR2 INHIBITORS AND THEIR SYNTHESIS FROM A NATURAL SOURCE” (COUNCIL OF SCIENTIFIC & INDUSTRIAL RESEARCH, priority 2010, published 2012).
Read-outs that look alike come from different tables or passages of the source.

Experiments:
human recombinant ALR2 = target: T1, human recombinant ALR2 (Homo sapiens, UniProt P15121); assay: ALR2 inhibition and determination of IC50 values (NADPH oxidation at 340 nm); type: biochemical
T1 construct: made in house; host or cells: E. coli JM101
Protocol: Transformed cells were selected on LB-medium containing 50 μg/ml spectinomycin and were grown overnight at 37° C. in LB broth containing M9 medium supplemented with 1% casamino acids, […] thiamine, and 0.05% trace metals. Culture was induced by isopropyl thiogalactoside (IPTG) at the final concentration of 1 mM and grown for additional 2 hours. Cells were harvested by spinning at 2000 g for 5 min at 4° C. and subjected to osmotic fractionation by suspending them in 20% sucrose, 30 mM Tris pH 7.5, 1 mM EDTA, and then cells were incubated at 23° C. for 15 min. After incubation, cells were recovered by centrifugation for 15 min at 2000 g at 4° C. Supernatant (sucrose wash) was reserved and pellet was resuspended in 1 ml of ice cold deionized water and incubated for 10 min on ice. Again cells were recovered by centrifugation at 12000 g for 5 min at 4° C. Supernatant (water wash) was reserved and pellet was resuspended in 1 ml of ice cold deionized water. Osmotic shock extract was further subjected to purification.
Osmotic shock extract was subjected to 50-80% ammonium sulphate fractionation followed by centrifugation at 10,000 g for 20 min. The pellet obtained was resuspended in 100-200 ml of 25 mM imidazole-HCl, pH 7.4. Crude lysate was applied to chromatography column packed with PBE 94 chromatofocussing resin, which had been previously equilibrated with 25 mM imidazole. Proteins were eluted from the column with 1:8 diluted polybuffer pH 7.4. Column eluant was continuously monitored by measuring absorbance at 280 nm. Fractions containing ALR2 activity were pooled and dialyzed against 10 mM potassium phosphate buffer containing 0.5 mM EDTA. Dialyzed samples were then applied to 30×2.5 cm at hydroxylapatite column equilibrated with 10 mM potassium phosphate buffer pH 7.4 containing 0.5 mM EDTA at a flow rate of 60 ml/h. The enzyme was eluted with a linear gradient 10-300 mM potassium phosphate buffer, pH 7.0. Fractions from each purification step are subjected to SDS-PAGE. Fractions containing ALR2 activity were pooled, concentrated and stored at −20° C. until further inhibition studies.
The assay mixture in 1 ml contained 50 mM potassium phosphate buffer, pH 6.2, 0.2 mM lithium sulfate, 5 mM 2-mercaptoethanol, 1 mM DL-glyceraldehyde, 0.1 mM NADPH and recombinant ALR2. Appropriate blanks were employed for corrections. The assay mixture was incubated at 37° C. and initiated by the addition of NADPH at 37° C. The change in the absorbance at 340 nm due to NADPH oxidation was monitored in a Lamda35 spectrophotometer (Perkin-Elmer, Shelton, USA).
For inhibition studies concentrated stocks of compounds prepared in dimethyl sulfoxide were used and the final concentration of DMSO was not more than 1% of the assay volume. Various concentrations of the above mentioned analogues were added to assay mixture of ALR2 and incubated for 5 min before initiating the reaction by NADPH as described above. The percentage inhibition was calculated considering the activity in the absence of compound as 100%. The IC50 values were determined by nonlinear regression analysis of the plot of percent inhibition versus log compound concentration.

human RBC = assay: Inhibition of sorbitol formation in RBC under high glucose conditions (ex vivo); type: cell-based; conditions: human RBC incubated under high glucose condition (55 mM), 3 hrs
Protocol: In vitro incubation of RBC: Five mL blood was collected from healthy male volunteers on overnight fasting in heparinized tubes. Red blood cells were separated by centrifugation (3000 rpm/min about 30 min) and washed three times with isotonic saline at 4° C. Washed RBC were suspended in Kreb's-ringer bicarbonate buffer, pH 7.4 (pre-equilibrated with 5% CO2) and incubated at 37° C. in presence of 5% CO2 for 3 hrs under normal (5.5 mM) and high glucose (55 mM) conditions in duplicates. The effect of compounds on sorbitol accumulation was evaluated by incubating the RBC with different concentrations of compounds.
Estimation of sorbitol in RBC: At the end of incubation period, RBC was homogenized in 9 volumes of 0.8 M perchloric acid. The homogenate was centrifuged at 5,000 g at 4° C. for 10 min and the pH of the supernatant was adjusted to 3.5 with 0.5 M potassium carbonate. The sorbitol content of the supernatant was measured by fluorometric method using a spectrofluorometer (Jasco-FP-6500).

[1] = recombinant human ALR2 in vitro, average of four experimental values, read-out: IC-50
[2] = human recombinant ALR2, read-out: IC50 value, ALR2 inhibition

Compound	% inhibition of sorbitol formation (human RBC)	IC50 (human recombinant ALR2; [2])	also measured
COc1cc(C(CC(=O)N2CCC(c3c(-c4ccccc4)[nH]c4ccccc34)CC2=O)c2c(-c3ccccc3)[nH]c3ccccc23)cc(OC)c1OC (stereo not shown) [3e, 1-(3-(3,4,5-trimethoxyphenyl)-3-(2-phenyl-1H-indol-3-yl)propanoyl)-4-(2-phenyl-1H-indol-3-yl)piperidin-2-one]	68%	–	IC50 (human recombinant ALR2; [1]): 4 µM
COC(=O)/C=C/c1cc(OC)c(OC)c(OC)c1 [compound 5, (E)-methyl 3-(3,4,5-trimethoxyphenyl)acrylate]	–	–	ALR2 inhibitory activity (in words) (human recombinant ALR2): inactive
COc1cc(C(CC(=O)N2CCC(c3c(C)[nH]c4ccccc34)CC2=O)c2c(C)[nH]c3ccccc23)cc(OC)c1OC (stereo not shown) [3d, 1-(3-(3,4,5-trimethoxyphenyl)-3-(2-methyl-1H-indol-3-yl)propanoyl)-4-(2-methyl-1H-indol-3-yl)piperidin-2-one]	–	–	IC50 (human recombinant ALR2; [1]): 40 µM
COc1cc(C(CC(=O)N2CCC(c3cn(Cc4ccccc4)c4ccccc34)CC2=O)c2cn(Cc3ccccc3)c3ccccc23)cc(OC)c1OC (stereo not shown) [3c, 1-(3-(1-benzyl-1H-indol-3-yl)-3-(3,4,5-trimethoxyphenyl)propanoyl)-4-(1-benzyl-1H-indol-3-yl)piperidin-2-one]	58.5%	4 µM	–
COc1cc(/C=C/C(=O)N2CCC=CC2=O)cc(OC)c1OC [Piplartine, 5,6-dihydro-1-((E)-3-(3,4,5-trimethoxyphenyl)acryloyl)pyridin-2(1H)-one]	–	160 µM	–
COc1cc(C(CC(=O)N2CCC=CC2=O)c2c[nH]c3ccc(Br)cc23)cc(OC)c1OC (racemic) [2g, 1-(3-(5-bromo-1H-indol-3-yl)-3-(3,4,5-trimethoxyphenyl)propanoyl)-5,6-dihydropyridin-2(1H)-one]	–	15 µM	IC50 (human recombinant ALR2; SAR studies text, read-out: IC50, in-vitro aldose reductase inhibition): 60 µM
pipernal	–	310 µM	–
COc1ccc2[nH]cc(C(CC(=O)N3CCC=CC3=O)c3cc(OC)c(OC)c(OC)c3)c2c1 (stereo not shown) [2j, 1-(3-(5-methoxy-1H-indol-3-yl)-3-(3,4,5-trimethoxyphenyl)propanoyl)-5,6-dihydropyridin-2(M)-one]	64.9%	8 µM	–
COc1cc(C(CC(=O)O)c2c(C)[nH]c3ccccc23)cc(OC)c1OC (stereo not shown) [compound 4, 3-(3,4,5-trimethoxyphenyl)-3-(2-methyl-1H-indol-3-yl)propanoic acid]	–	–	ALR2 inhibitory activity (in words) (human recombinant ALR2): inactive
